Earlier results on 1 substance are cited in PMC9465641 (Frontiers in Pharmacology, 2022).

On the set-up of this series: method as in Wang et al., 2021; Chen et al., 2022. The conditions noted are these: range reported previously; ref Wang et al., 2021; Chen et al., 2022; cited from earlier work.

With polymyxin B, the CL is 1.59 to 2.86 L/h.
